Here are results for 13 molecules from patent US20250179078A1, “INHIBITORS OF NLRP3” (PTC THERAPEUTICS, INC., priority 2022, published 2025).

Bounds are passed on as bounds.

The assay deals with T1, NLRP3 (Homo sapiens, UniProt Q96P20).
T1 construct: host or cells: THP-1 cells differentiated with PMA
T1 sequence (Q96P20 whole entry): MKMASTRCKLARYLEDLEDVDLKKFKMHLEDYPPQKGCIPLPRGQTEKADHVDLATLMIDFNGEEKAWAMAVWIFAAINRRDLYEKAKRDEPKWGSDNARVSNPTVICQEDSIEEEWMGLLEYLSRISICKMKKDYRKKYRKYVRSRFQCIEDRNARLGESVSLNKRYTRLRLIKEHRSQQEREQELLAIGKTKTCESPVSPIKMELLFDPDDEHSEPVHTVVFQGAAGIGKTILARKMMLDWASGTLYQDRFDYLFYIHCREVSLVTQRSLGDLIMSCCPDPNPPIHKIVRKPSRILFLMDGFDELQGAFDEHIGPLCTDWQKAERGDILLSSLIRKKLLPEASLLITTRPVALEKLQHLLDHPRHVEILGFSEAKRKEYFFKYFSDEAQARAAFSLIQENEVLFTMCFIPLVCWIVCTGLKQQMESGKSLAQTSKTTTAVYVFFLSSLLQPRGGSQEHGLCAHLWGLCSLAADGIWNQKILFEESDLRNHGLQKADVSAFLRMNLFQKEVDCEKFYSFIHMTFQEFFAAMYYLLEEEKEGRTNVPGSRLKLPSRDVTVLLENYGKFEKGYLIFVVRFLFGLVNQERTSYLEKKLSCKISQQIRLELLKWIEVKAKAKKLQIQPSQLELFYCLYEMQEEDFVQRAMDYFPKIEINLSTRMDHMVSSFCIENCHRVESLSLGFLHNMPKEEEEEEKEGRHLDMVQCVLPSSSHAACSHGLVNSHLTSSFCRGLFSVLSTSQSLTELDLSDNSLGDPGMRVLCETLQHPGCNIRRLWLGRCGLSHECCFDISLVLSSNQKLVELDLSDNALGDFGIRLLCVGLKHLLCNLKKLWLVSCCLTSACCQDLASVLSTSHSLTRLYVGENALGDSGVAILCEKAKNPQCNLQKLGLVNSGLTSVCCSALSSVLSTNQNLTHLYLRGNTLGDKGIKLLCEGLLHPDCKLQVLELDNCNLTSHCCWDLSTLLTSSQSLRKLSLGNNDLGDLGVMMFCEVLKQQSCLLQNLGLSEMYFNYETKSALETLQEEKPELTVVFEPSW
In words: IL-1β Secretion Assay (NLRP3-dependent IL1β secretion in THP1 cells). As to conditions: PMA-differentiated THP-1 cells; compounds incubated 20 h; 2.5 μM Nigericin 3 h; HTRF IL-1β readout; read-out: IC50 IL-1β Inhibition. The assay is classed as cell-based. Summed up: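 IL-1β in conditioned media, measured by HTRF after 3 h 2.5 μM nigericin stimulation, gave % inhibition fitted logistically for IC50. Before that, PMA-differentiated (100 ng/mL, 24 h) THP-1 cells were preincubated 20 h with 7 compound concentrations (3-fold serial, DMSO 1:200).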
On the technique in general: Time-resolved FRET reads energy transfer from a long-lived donor to a nearby acceptor.
A word on the IC50: it is the concentration needed to halve the response being measured. Regarding `Cc1ccc(-c2nnc(N[C@H]3C[C@@H](CO)C3)n3cncc23)c(OC(F)(F)F)c1` [Compound 347, [(1s,3s)-3-({1-[4-methyl-2-(trifluoromethoxy)phenyl]imidazo[1,5-d][1,2,4]triazin-4-yl}amino)cyclobutyl]methanol], the half-inhibitory concentration (IC50) is 10 to 100 nM.
The result for `COc1ccc(-c2nnc(N[C@H]3C[C@@](C)(O)C3)n3cncc23)c(C(F)(F)F)c1` [Compound 214, (1s,3s)-3-({1-[4-methoxy-2-(trifluoromethyl)phenyl]imidazo[1,5-d][1,2,4]triazin-4-yl}amino)-1-methylcyclobutan-1-ol] reads 1 to 10 nM; that for `CCN1CC[C@@H](O)[C@@H](Nc2nnc(-c3ccc(OC)cc3OC(F)F)c3cccn23)C1` [Compound 175, (3S,4R)-3-({1-[2-(difluoromethoxy)-4-methoxyphenyl]pyrrolo[1,2-d][1,2,4]triazin-4-yl}amino)-1-ethylpiperidin-4-ol], less than 1 nM.
`OC[C@H]1C[C@@H](Nc2nnc(-c3ccc(C(F)(F)F)cc3CC(F)(F)F)c3cncn23)C1` [Compound 264]: the 50% inhibitory concentration (IC50) is less than 1 nM.
Turning to `COc1ccc(-c2nnc(N[C@H]3CCCC[C@]3(C)O)n3cccc23)c(OC(F)(F)F)c1` (single isomer, unassigned) [Compound 180], the IC50 is 1 to 10 nM.
The value for `Cc1cc2c(-c3ccc(C(F)(F)F)cc3C(F)(F)F)nnc(N[C@@H]3CCCN(C)C3)n2c1` [Compound 109, 1-[2,4-bis(trifluoromethyl)phenyl]-7-methyl-N-[(3R)-1-methylpiperidin-3-yl]pyrrolo[1,2-d][1,2,4]triazin-4-amine] was 1 to 10 nM.
For `CN1CCC[C@H](CNc2nnc(-c3ccc(C(F)(F)F)cc3CC(F)(F)F)c3cccn23)C1` [Compound 147, N-{[(3R)-1-methylpiperidin-3-yl]methyl}-1-[2-(2,2,2-trifluoroethyl)-4-(trifluoromethyl)phenyl]pyrrolo[1,2-d][1,2,4]triazin-4-amine], the half-maximal inhibitory concentration (IC50) is 1 to 10 nM.
For the molecule `O[C@@H]1CCCC[C@H]1Nc1nnc(-c2ccc(Cl)cc2OC(F)(F)F)c2cncn12` [Compound 300, (1R,2R)-2-({1-[4-chloro-2-(trifluoromethoxy)phenyl]imidazo[1,5-d][1,2,4]triazin-4-yl}amino)cyclohexan-1-ol], the IC50 was 1 to 10 nM.
In the case of `CN1CCC[C@@H](Nc2nnc(-c3ccc(C(F)(F)F)cc3OC(F)(F)F)c3cccn23)C1` [Compound 140, N-[(3R)-1-methylpiperidin-3-yl]-1-[2-(trifluoromethoxy)-4-(trifluoromethyl)phenyl]pyrrolo[1,2-d][1,2,4]triazin-4-amine], the half-maximal inhibitory concentration (IC50) was less than 1 nM.
As for `Cc1cc2c(-c3ccc(Cl)cc3OC(F)F)nnc(N[C@@H]3CCCN(C)C3)n2c1` [Compound 13, 1-[4-chloro-2-(difluoromethoxy)phenyl]-7-methyl-N-[(3R)-1-methylpiperidin-3-yl]pyrrolo[1,2-d][1,2,4]triazin-4-amine], the 50% inhibitory concentration (IC50) was in the range of 1 to 10 nM.
As for `O[C@@H]1CCCCC[C@@H]1Nc1nnc(-c2ccc(C(F)(F)F)cc2CC(F)(F)F)c2cccn12` (racemic) [Compound 126, (1S,2R)-2-({1-[2-(2,2,2-trifluoroethyl)-4-(trifluoromethyl)phenyl]pyrrolo[1,2-d][1,2,4]triazin-4-yl}amino)cycloheptan-1-ol AND (1R,2S)-2-({1-[2-(2,2,2-trifluoroethyl)-4-(trifluoromethyl)phenyl]pyrrolo[1,2-d][1,2,4]triazin-4-yl}amino)cycloheptan-1-ol], the IC50 was 1 to 10 nM.
The value for `CCN1CCC[C@@H](Nc2nnc(-c3ccc(OC)cc3C(F)(F)F)c3cc(C)nn23)C1` [Compound 373, N-[(3R)-1-ethylpiperidin-3-yl]-4-[4-methoxy-2-(trifluoromethyl)phenyl]-2-methylpyrazolo[1,5-d][1,2,4]triazin-7-amine] was less than 1 nM.
`Cc1ccc(-c2nnc(N[C@@H]3CCOC[C@H]3O)n3cncc23)c(CC(F)(F)F)c1` [Compound 402, (3S,4R)-4-({1-[4-methyl-2-(2,2,2-trifluoroethyl)phenyl]imidazo[1,5-d][1,2,4]triazin-4-yl}amino)oxan-3-ol]: the 50% inhibitory concentration (IC50) lay within 10 to 100 nM.
